# Residues, ends and D or L forms follow the SMILES beside them.
# Target: T1, natural hair keratin (Hair Keratin KRTHB1 Basic, SEQ ID NO: 7) (Homo sapiens, UniProt Q14533)
# T1 sequence (Q14533 304-505): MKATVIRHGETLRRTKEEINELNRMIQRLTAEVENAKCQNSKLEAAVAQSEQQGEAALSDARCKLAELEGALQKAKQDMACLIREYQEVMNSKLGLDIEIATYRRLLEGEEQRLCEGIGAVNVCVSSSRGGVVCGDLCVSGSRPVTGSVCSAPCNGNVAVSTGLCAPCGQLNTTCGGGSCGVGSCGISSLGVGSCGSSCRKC
# Assay: SPRi binding affinity of peptides to keratin printed on a sensor chip
# Conditions: for kon / koff: SPRi, 4° C., kinetic analysis with BIAevaluation 4.1; for kon: read-out: Ka (association rate constant); for koff: read-out: Kd (dissociation rate constant); for Affinity ranking: rank by KD, the lower the KD the more affinity to hair keratin
# Experimental: Affinity of Aquis peptides with natural hair keratin were tested. A third peptide was also tested with the sequence GGVCGPSPPCITT (SEQ ID NO: 6) known as KP developed by Khairpep as a control. KP has been shown in previous patent and publications to penetrate the hair shaft, bind to keratin and improve hair mechanical properties. Various concentrations of Keratin dissolved in water were manually printed onto the bare gold coated (thickness 47 nm) PlexArray Nanocapture Sensor Chip (Plexera Bioscience, Seattle, WA, US) at 40% humidity. Each concentration was printed in replicate, and each spot contained 0.2 microliters of […] solution. The chip was incubated in 80% humidity at 4° C. for overnight, and rinsed with 10×PBST for 10 min, 1×PBST for 10 min, and deionized water twice for 10 min. The chip was then blocked with 5% (w/v) non-fat milk in water overnight, and washed with 10×PBST for 10 min, 1×PBST for 10 min, and deionized water twice for 10 min before being dried under a stream of nitrogen prior to use. SPRi measurements were performed with PlexAray HT (Plexera Bioscience, Seattle, WA, US). Collimated light (660 nm) passes through the coupling prism, reflects off the SPR-active gold surface, and is received by the CCD camera. Buffers and samples were injected by a non-pulsatile piston pump into the 30 uL flowcell that was mounted on the coupling prim. Each measurement cycle contained four steps: washing with PBST running buffer at a constant rate of 2 uL/s to obtain a stable baseline, sample injection at 5 uL/s for binding, surface washing with PBST at 2 uL/s for 300 s, and regeneration with 0.5% (v/v) H3PO4 at 2 uL/s for 300 s. All the measurements were performed at 4° C. The signal changes after binding and washing (in AU) are recorded as the assay value. Selected protein-grafted regions in the SPR images were analyzed, and the average reflectivity variations of the chosen areas were plotted as a function of time. Real-time binding signals were recorded and analyzed by Data Analysis Module (DAM, Plexera Bioscience, Seattle, WA, US). Kinetic analysis was performed using BIAevaluation 4.1 software (Biacore, Inc.).
# FIG. 1 to 3 show the binding affinity to keratin for each peptide tested. The lower the KD value is, the more affinity the peptide has to hair keratin.
Compound,kon [M⁻¹ s⁻¹],koff [s⁻¹],Affinity ranking,"affinity to hair keratin compared with the other peptides (comparison of Figures 1-3, in words)"
"CC[C@H](C)[C@H](NC(=O)[C@H](CS)NC(=O)[C@@H]1CCCN1C(=O)[C@@H]1CCCN1C(=O)[C@H](CO)NC(=O)[C@@H]1CCCN1C(=O)CNC(=O)[C@H](CS)NC(=O)[C@@H](NC(=O)CNC(=O)CN)C(C)C)C(=O)N[C@H](C(=O)N[C@H](C(=O)O)[C@@H](C)O)[C@@H](C)O [KP, GGVCGPSPPCITT, reference compound] (H-GGVCGPSPPCITT-OH; N-terminus and C-terminus assumed)",8500,0.000692,2,–
"C[C@@H](O)[C@H](NC(=O)[C@H](CO)NC(=O)[C@H](CS)NC(=O)[C@H](CO)NC(=O)[C@@H]1CCCN1C(=O)[C@H](Cc1ccccc1)NC(=O)CNC(=O)[C@H](CS)NC(=O)[C@@H](N)Cc1ccccc1)C(=O)N[C@@H](CO)C(=O)NCC(=O)O [Aquis 1, FCGFPSCSTSG] (H-FCGFPSCSTSG-OH; N-terminus and C-terminus assumed)",1310,0.000478,1,has the most affinity to hair keratin
"CC(C)C[C@H](NC(=O)[C@H](CCC(N)=O)NC(=O)[C@H](CS)NC(=O)[C@H](CS)NC(=O)[C@H](CO)NC(=O)[C@@H]1CCCN1C(=O)[C@@H]1CCCN1C(=O)[C@@H](NC(=O)[C@@H](N)CS)[C@@H](C)O)C(=O)N[C@@H](Cc1c[nH]cn1)C(=O)N[C@@H](Cc1c[nH]cn1)C(=O)N[C@@H](C)C(=O)O [Aquis 2, CTPPSCCQLHHA] (H-CTPPSCCQLHHA-OH; N-terminus and C-terminus assumed)",8240,0.0206,3,–

# Reference: patent publication US12357556B2, “Composition for improving hair health” (K18, Inc., priority 2018, dated 2025)
